Drawing on patent US6911446B2, “Methods of modulating serine/threonine protein kinase function with quinazoline-based compounds” (Sugen, Inc., priority 1997, dated 2005), this text covers IC50 and melting point for nine compounds.

The structures appear in SMILES notation. pIC50: −log10 of the molar value. Where “and” joins values, the source holds several entries; their conditions need not be identical. Equal values may be shown once.

One series has as its target T1, RAF-1 (Homo sapiens, UniProt P04049).
T1 construct: made in house; host or cells: Sf9 (Spodoptera frugiperda) cells co-infected with RAS and RAF recombinant baculoviruses
Nature of the series: RAF-1 ELISA phosphorylation assay (RAF-catalyzed phosphorylation of MEK and MAPK). In kind it is biochemical. Particulars: RAF-1 phosphorylation assay, lysates from RAS/RAF infected Sf9 cells, substrates T-MEK and His-MAPK. The source says: The following assay reports the amount of RAF-catalyzed phosphorylation of its target protein MEK as well as MEK's target MAPK. The RAF gene sequence is described in Bonner et al., 1985, Molec. Cell. Biol. 5: 1400-1407, and is readily accessible in multiple gene sequence data banks. Construction of the nucleic acid vector and cell lines utilized for this portion of the invention are fully described in Morrison et al., 1988, Proc. Natl. Acad. Sci. USA 85: 8855-8859.
• 1. Sf9 (Spodoptera frugiperda) cells; GIBCO-BRL, Gaithersburg, Md. • 2. RIPA buffer: 20 mM Tris/HCl pH 7.4, 137 mM NaCl, 10% glycerol, 1 mM PMSF, 5 mg/L Aprotenin, 0.5% Triton X-100; • 3. Thioredoxin-MEK fusion protein (T-MEK): T-MEK expression and purification by affinity chromatography were performed according to the manufacturer's procedures. Catalog#K 350-01 and R 350-40, Invitrogen Corp., San Diego, Calif. • 4. His-MAPK (ERK 2); His-tagged MAPK was expressed in XL1 Blue cells transformed with pUC18 vector encoding His-MAPK. His-MAPK was purified by Ni-affinity chromatography. Cat#27-4949-01, Pharmacia, Alameda, Calif., as described herein. • 5. Sheep anti mouse IgG: Jackson laboratories, West Grove, Pa. Catalog, #515-006-008, Lot#28563 • 6. RAF-1 protein kinase specific antibody: URP2653 from UBI. • 7. Coating buffer: PBS; phosphate buffered saline, GIBCO-BRL, Gaithersburg, Md. • 8. Wash buffer: TBST-50 mM Tris/HCL pH 7.2, 150 mM NaCl, 0.1% Triton X-100 • 9. Block buffer: TBST, 0.1% ethanolamine pH 7.4 • 10. DMSO, Sigma, St. Louis, Mo. • 11. Kinase buffer (KB): 20 mM Hepes/HC1 pH 7.2, 150 mM NaCl, 0.1% Triton X-100, 1 mM PMSF, 5 mg/L Aprotenin, 75 μM sodium ortho vanadate, 0.5 MM DTT and 10 mM MgCl2. • 12. ATP mix: 100 mM MgCl2, 300 μM ATP, 10 μCi γ-^33P ATP (Dupont-NEN)/mL. • 13 Stop solution: 1% phosphoric acid; Fisher, Pittsburgh, Pa. • 14. Wallac Cellulose Phosphate Filter mats; Wallac, Turku, Finnland. • 15. Filter wash solution: 1% phosphoric acid, Fisher, Pittsburgh, Pa. • 16. Tomtec plate harvester, Wallac, Turku, Finnland. • 17. Wallac beta plate reader #1205, Wallac, Turku, Finnland. • 18. NUNC 96-well V bottom polypropylene plates for compounds Applied Scientific Catalog #AS-72092. Procedure
All of the following steps were conducted at room temperature unless specifically indicated. • 1. ELISA plate coating: ELISA wells are coated with 100 μL of Sheep anti mouse affinity purified antiserum (1 μg/100 μL coating buffer) over night at 4° C. ELISA plates can be used for two weeks when stored at 4° C. • 2. Invert the plate and remove liquid. Add 100 μL of blocking solution and incubate for 30 min. • 3. Remove blocking solution and wash four times with wash buffer. Pat the plate on a paper towel to remove excess liquid. • 4. Add 1 μg of antibody specific for RAF-1 to each well and incubate for 1 hour. Wash as described in step 3. • 5. Thaw lysates from RAS/RAF infected Sf9 cells and dilute with TBST to 10 μg/100 μL. Add 10 μg of diluted lysate to the wells and incubate for 1 hour. Shake the plate during incubation. Negative controls receive no lysate. Lysates from RAS/RAF infected Sf9 insect cells are prepared after cells are infected with recombinant baculoviruses at a MOI of 5 for each virus, and harvested 48 hours later. The cells are washed once with PBS and lysed in RIPA buffer. Insoluble material is removed by centrifugation (5 min at 10,000×g). Aliquots of lysates are frozen in dry ice/ethanol and stored at −80° C. until use. • 6. Remove non-bound material and wash as outlined above (step 3). • 7. Add 2 μg of T-MEK and 2 μg of His-MAEPK per well and adjust the volume to 40 μL with kinase buffer. Methods for purifying T-MEK and MAPK from cell extracts are provided herein by example. • 8. Predilute compounds (stock solution 10 mg/mL DMSO) or extracts 20 fold in TBST plus 1% DMSO. Add 5 μL of the prediluted compounds/extracts to the wells described in step 6. Incubate for 20 min. Controls receive no drug. • 9. […]
A general note: In an ELISA, binding on a coated surface is turned into a signal by an enzyme label.

T1 sequence (P04049 whole entry): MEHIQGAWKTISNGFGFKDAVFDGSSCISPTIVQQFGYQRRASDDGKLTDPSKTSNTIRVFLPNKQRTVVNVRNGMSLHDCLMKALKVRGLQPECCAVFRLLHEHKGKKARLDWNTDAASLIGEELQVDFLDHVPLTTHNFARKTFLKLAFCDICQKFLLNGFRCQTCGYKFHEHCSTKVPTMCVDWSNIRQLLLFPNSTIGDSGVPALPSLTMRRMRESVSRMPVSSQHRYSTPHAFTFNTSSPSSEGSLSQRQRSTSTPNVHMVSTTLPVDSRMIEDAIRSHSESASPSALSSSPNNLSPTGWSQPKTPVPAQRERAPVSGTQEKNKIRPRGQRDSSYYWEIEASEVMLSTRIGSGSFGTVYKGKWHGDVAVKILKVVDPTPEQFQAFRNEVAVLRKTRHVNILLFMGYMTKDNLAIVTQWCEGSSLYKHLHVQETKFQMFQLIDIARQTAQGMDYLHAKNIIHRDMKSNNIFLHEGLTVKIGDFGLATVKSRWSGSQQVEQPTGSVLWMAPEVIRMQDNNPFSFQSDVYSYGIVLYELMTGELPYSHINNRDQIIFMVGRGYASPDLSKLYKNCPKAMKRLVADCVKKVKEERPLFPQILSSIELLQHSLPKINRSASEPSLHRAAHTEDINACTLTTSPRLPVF

Compound `Nc1ncnc2cccc(Sc3ccccc3)c12` [Compound A-3, 4-Amino-5-phenylthioquinazoline] gave a negative-log IC50 (pIC50) at RAF-1 of 4.59.

In turn, `Cc1ccc(Sc2cccc3nc(N)nc(N)c23)cc1` [Compound A-4, 2,4-Diamino-5-(4-methylphenylthio)quinazoline] had a pIC50 at RAF-1 below 4.00. Still for that read-out and setting: as for `Nc1nc(N)c2c(Sc3ccc(Cl)cc3)cccc2n1` [Compound A-5, 2,4-Diamino-5-(4-chlorophenylthio)quinazoline], the figure is below 4.00.

As for `Nc1nc(N)c2c(Oc3cccc(C(F)(F)F)c3)cccc2n1` [Compound A-11, 2,4-Diamino-5-(3-trifluoromethylphenoxy)quinazoline], the pIC50 on RAF-1 is below 4.00. As to `Nc1nc(-c2ccccc2)nc2cccc(Oc3ccccc3)c12` [Compound A-12, 4-Amino-2-phenyl-5-phenoxyquinazoline], the melting point fell in the range of 190 to 191 °C. At RAF-1, the pIC50 is below 4.00. The matching figures for `Nc1ncnc2cccc(Oc3ccc(F)cc3)c12` [Compound A-13, 4-Amino-5-(4-fluorophenoxy)quinazoline]: 188 to 190 °C and 7.00. Take `CN(C)c1cccc(Oc2cccc3nc(N)nc(N)c23)c1` [Compound A-14, 2,4-Diamino-5-(3-dimethylaminophenoxy)quinazoline]: on RAF-1, the negative-log IC50 (pIC50) is 4.61 and 4.24. Still for that read-out and setting: as for `COc1ccc(Oc2cccc3ncnc(N)c23)cc1` [Compound A-15, 4-Amino-5-(4-methoxyphenoxy)quinazoline], the figure is 6.10. `Nc1nc(N)c2c(Nc3ccccc3)cccc2n1` [Compound A-35, 2,4-Diamino-5-anilinoquinazoline]: the melting point was 279 to 283 °C (dec.).

The pIC50 is −log10 of the IC50, conventionally taken in molar units. High values mean a small IC50, low ones a large IC50. In general, melting point refers to the temperature, or range, at which the solid turns liquid.
